In PMC11784145, “Efficacy and in vitro pharmacological assessment of novel N-hydroxypyridinediones as hepatitis B virus ribonuclease H inhibitors” (Antimicrobial Agents and Chemotherapy, 2024):

Legend:
CYP2D6 = molecular target: T1, CYP2D6 (Homo sapiens, UniProt P10635); assay: Cytochrome P450 inhibition, Vivid 2D6 EOMCC Blue kit; assay type: in vitro ADME; settings: dose-response 50 µM to 3 nM; mean ± SD
T1 construct: purchased Thermo Fisher Vivid 2D6 EOMCC Blue
Procedure: (§1) Compound inhibition of Cytochrome P (CYP) 3A4, 2C9, and 2D6 was determined using Vivid CYP450 screening kits (Thermo Fisher) according to the manufacturer’s instructions, as described previously ([27]). The kits employed were: Vivid 3A4 DBOMF Green, 2C9 BOMF Green, and 2D6 EOMCC Blue. Reactions were initiated by addition of the fluorophore-conjugated substrates with Vivid NADP^+ and were conducted at 37°C using either a Biotek Synergy HTX multi-mode plate reader with 485/20 nm excitation and 520/20 nm emission filters (green-fluorescent substrate), or a Tecan Spark plate reader with monochromator settings at 415/20 nm excitation and 460/20 nm emission (blue-fluorescent substrate) defined by the Center Wavelength/band-pass values. Substrate cleavage was detected every 60 s.
Compounds were initially screened against each enzyme at 10 µM and maximum rates of fluorescence in RFU were calculated using the Biotek Gen5 v3.11 software. Percent inhibition of experimental compound reactions was normalized to the rate to DMSO vehicle reactions. Positive controls used were: CYP3A4—ketoconazole (Sigma Aldrich), CYP2C9—sulfaphenazole (Cayman Chemical), and CYP2D6—quinidine (Fisher Scientific). Dose-response curves were generated for compounds that inhibited an enzyme by ≥50% using titrated concentrations of compound (50 µM to 3 nM) or 1% DMSO. IC50 values were determined using the four-parameter log[inhibitor] versus response algorithm in GraphPad Prism. Qualitative screens and dose-response curves were each performed in triplicate on different days.

[1] = Solubility limit, turbidimetric assay; assay type: physicochemical; settings: upper limit 200 µM
Procedure: Solubility limits were determined by a turbidimetric assay, as described ([27]), with the solubility limit being defined as the compound concentration where light scattering began to rise. Two or more replicate assays were performed for each compound at each pH on different days.

[2] = test system: HBV replication (HBV plus-polarity DNA strand); assay: HBV replication inhibition, strand preferential qPCR in hepDES19 cells; assay type: cell-based, hepatitis B virus; settings: for EC50: 72 h exposure, HBV plus-polarity strand suppression, highest concentration tested 100 µM, mean ± SD, read-out: HepDES19 EC50
Procedure: HBV replication inhibition was measured in hepDES19 cells following 72 h compound exposure without compound replenishment. EC50 values were determined by HBV plus-polarity strand suppression using a strand preferential qPCR assay, as described previously ([28]). Three or more replicate values were obtained on different days.

HepDES19 cells = settings: read-out: HepDES19 CC50; 72 h, MTS; highest concentration tested 100 µM; mean ± SD
Procedure: HepDES19 cells were plated on 96-well tissue culture-treated plates (Greiner) at 1.0 × 10^4 cells per well and incubated for 48 h. Cells were treated with titrated concentrations of compound or 1% DMSO vehicle for 72 h, and cellular viability was measured by 3-(4,5-dimethylthiazol-2-yl)−5-(3-carboxymethoxyphenyl)−2-(4-sulfophenyl)−2H-tetrazolium (MTS) assays, as described previously ([20]). […] Three or more replicate assays were done on different days.

[3] = Parallel artificial membrane permeability assay (PAMPA); assay type: in vitro ADME
Procedure: Compound Papp values were determined by normalizing the experimental compound absorbance to the compounds’ absorbances at equilibrium, membrane porosity, buffer volume, and time (s). Two or more replicate assays were obtained on separate days for each pH.

CYP3A4 = molecular target: T2, CYP3A4 (Homo sapiens, UniProt P08684); assay: Cytochrome P450 inhibition, Vivid 3A4 DBOMF Green kit; assay type: in vitro ADME; settings: 10 µM compound
T2 construct: purchased Thermo Fisher Vivid 3A4 DBOMF Green
Procedure: as §1
Compounds were initially screened against each enzyme at 10 µM and maximum rates of fluorescence in RFU were calculated using the Biotek Gen5 v3.11 software. Percent inhibition of experimental compound reactions was normalized to the rate to DMSO vehicle reactions. Positive controls used were: CYP3A4—ketoconazole (Sigma Aldrich), CYP2C9—sulfaphenazole (Cayman Chemical), and CYP2D6—quinidine (Fisher Scientific). […] IC50 values were determined using the four-parameter log[inhibitor] versus response algorithm in GraphPad Prism. […]

Microsome stability = assay type: in vitro ADME, human; settings: human, microsomes
plasma proteins = assay: Plasma protein binding, rapid equilibrium dialysis; assay type: in vitro ADME, bovine; settings: 10 µM compound, DMEM-F12 with 10% FBS (0.25 mg/mL BSA), 4 h, 37°C
Procedure: Plasma protein binding was performed using the Pierce rapid equilibrium dialysis device (Thermo Fisher) per the manufacturer’s instructions, as described ([27]). Briefly, the sample wells contained DMEM-F12 supplemented with 10% FBS spiked with 10 µM compound, and the buffer wells contained phosphate-buffered saline (PBS). The plate was incubated for 4 h at 37°C with shaking, after which 50 µL was retrieved from the buffer and sample wells and added to ice-cold acetonitrile and the internal standard described above. Samples were matrix-matched with PBS supplemented with 10% FBS or PBS alone, respectively, and centrifuged at 4,000 × g for 5 min to pellet plasma proteins. The supernatants were analyzed by LCMS/MS and percent compound bound was determined, as described previously ([27]).

[4] = pH 5 (fed simulated intestinal fluid)
[5] = pH 6.5 (fasted simulated intestinal fluid)

T1 sequence (P10635 whole entry): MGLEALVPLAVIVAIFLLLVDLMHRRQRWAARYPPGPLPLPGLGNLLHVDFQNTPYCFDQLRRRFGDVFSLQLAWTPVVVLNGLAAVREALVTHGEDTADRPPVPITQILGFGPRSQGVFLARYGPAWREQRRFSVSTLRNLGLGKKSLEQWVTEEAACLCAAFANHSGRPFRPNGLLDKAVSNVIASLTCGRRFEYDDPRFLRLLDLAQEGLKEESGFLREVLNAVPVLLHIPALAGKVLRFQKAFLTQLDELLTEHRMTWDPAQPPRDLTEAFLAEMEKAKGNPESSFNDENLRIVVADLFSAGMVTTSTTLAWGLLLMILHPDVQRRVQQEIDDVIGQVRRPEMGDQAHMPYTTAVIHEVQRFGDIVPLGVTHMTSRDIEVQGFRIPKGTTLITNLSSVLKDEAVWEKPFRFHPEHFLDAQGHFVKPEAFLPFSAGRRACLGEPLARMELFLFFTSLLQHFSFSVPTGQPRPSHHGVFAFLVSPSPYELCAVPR
T2 sequence (P08684 whole entry): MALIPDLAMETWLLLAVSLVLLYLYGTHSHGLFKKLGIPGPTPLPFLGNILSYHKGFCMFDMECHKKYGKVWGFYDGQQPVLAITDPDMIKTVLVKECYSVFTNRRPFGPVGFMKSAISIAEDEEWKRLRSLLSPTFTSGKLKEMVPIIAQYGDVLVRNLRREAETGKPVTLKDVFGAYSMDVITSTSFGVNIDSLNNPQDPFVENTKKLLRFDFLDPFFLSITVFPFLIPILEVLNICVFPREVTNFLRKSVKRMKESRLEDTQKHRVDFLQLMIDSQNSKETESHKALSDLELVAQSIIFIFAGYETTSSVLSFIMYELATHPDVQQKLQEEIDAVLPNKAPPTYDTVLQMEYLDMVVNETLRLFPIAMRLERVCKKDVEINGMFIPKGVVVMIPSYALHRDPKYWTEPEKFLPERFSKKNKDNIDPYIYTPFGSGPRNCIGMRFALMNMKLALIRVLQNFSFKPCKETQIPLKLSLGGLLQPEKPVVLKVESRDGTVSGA

Row | Structure (SMILES) | Average Sol (solubility limit) [1, 4] | Sol 1 (solubility limit) ([1]; pH 5, replicate 1) | Sol 2 (solubility limit) ([1]; pH 5, replicate 2) | Average Sol (solubility limit) [1, 5] | Sol 1 (solubility limit) ([1]; pH 6.5, replicate 1) | Sol 2 (solubility limit) ([1]; pH 6.5, replicate 2) | Average Sol (solubility limit) ([1]; pH 7.4 (DMEM-F12 with 10% FBS)) | Sol 1 (solubility limit) ([1]; pH 7.4, replicate 1) | Sol 2 (solubility limit) ([1]; pH 7.4, replicate 2) | HepDES19 SI (CC50/EC50) [2] | EC50 [2] | CC50 (HepDES19 cells) | Interpretation (PAMPA Papp) ([3]; FeSSIF pH 5) | Papp 1 (PAMPA) ([3]; FeSSIF pH 5, replicate 1) | Papp 2 (PAMPA) ([3]; FeSSIF pH 5, replicate 2) | Papp 3 (PAMPA) ([3]; FeSSIF pH 5, replicate 3) | Avg Papp (PAMPA) ([3]; pH 7.4) | Interpretation (PAMPA Papp) ([3]; pH 7.4) | Papp 1 (PAMPA) ([3]; pH 7.4, replicate 1) | Papp 2 (PAMPA) ([3]; pH 7.4, replicate 2) | also measured
1 | CC(=NOCc1cccc(Cl)c1)c1c(C)cc(=O)n(O)c1O [Compound 1719] | 150 µM | 100 µM | > 200 µM | > 200 µM | > 200 µM | > 200 µM | > 200 µM | > 200 µM | > 200 µM | 34.5 | 1.35 ± 1.03 µM | 56.9 ± 31.1 µM | H (H: Papp > 1*10-6) | 48.6 ×10⁻⁶ cm/s | 78.8 ×10⁻⁶ cm/s | 90.3 ×10⁻⁶ cm/s | 2.9 ×10⁻⁶ cm/s | H (H: Papp > 1*10-6) | 2.82 ×10⁻⁶ cm/s | 2.99 ×10⁻⁶ cm/s | IC50 (CYP2D6): 11.2 ± 3.79 µM; Avg Papp (PAMPA) ([3]; FeSSIF pH 5): 72.6 ×10⁻⁶ cm/s
2 | CC(=NOCc1ccc(OCc2ccc(C(C)(C)C)cc2)cc1)c1c(C)cc(=O)n(O)c1O [Compound 1808] | > 200 µM | > 200 µM | > 200 µM | > 200 µM | > 200 µM | > 200 µM | 100 µM | 100 µM | 100 µM | 6.24 | 6 ± 0.17 µM | 38.2 ± 10.2 µM | H (H: Papp > 1*10-6) | 32.2 ×10⁻⁶ cm/s | 9.19 ×10⁻⁶ cm/s | 81.4 ×10⁻⁶ cm/s | 2.97 ×10⁻⁶ cm/s | H (H: Papp > 1*10-6) | 3.7 ×10⁻⁶ cm/s | 2.6 ×10⁻⁶ cm/s | Papp 4 (PAMPA) ([3]; FeSSIF pH 5, replicate 4): 95.8 ×10⁻⁶ cm/s; Papp 3 (PAMPA) ([3]; pH 7.4, replicate 3): 2.6 ×10⁻⁶ cm/s; Percent inhibition of CYP3A4 (CYP3A4): ~ 42%; Clearance (intrinsic clearance, Clint) (Microsome stability): 10.1 µL/min/mg; Half-life (Microsome stability): >30 min
3 | Nc1ccn([C@@H]2CS[C@H](CO)O2)c(=O)n1 [Lamivudine, lamivudine, reference compound] | – | – | – | – | – | – | – | – | – | – | – | – | – | – | – | – | – | – | – | – | Percent bound (plasma proteins): 9.70 ± 11.3%; Percent bound (plasma proteins; listed as lamivudine): 10%
